# Measured values taken from article PMC12102759 (Protein Science : A Publication of the Protein Society, 2025).
# Test system: PABPC1 PABC
# Type: binding, human
# Conditions: DMS-BM library, bait PABPC1 PABC, row aa = residue at this position; for DMS-derived PSSM value, position S15 / DMS-derived PSSM value, position S13: S = wild type; for DMS-derived PSSM value, position R14 / DMS-derived PSSM value (averaged), position R12 / DMS-derived PSSM value, position R12: R = wild type
# [1] = prey ATXN2, peptide TLNPNAKEFNPRSFSQ, K = wild type
# [2] = prey ATXN2, TLNPNAKEFNPRSF(averaged) over the two overlapping peptides, F = wild type
# [3] = prey ATXN2, peptide TLNPNAKEFNPRSFSQ, F = wild type
# [4] = prey ATXN2, peptide TLNPNAKEFNPRSFSQ, N = wild type
# [5] = prey ATXN2, peptide KSTLNPNAKEFNPRSF
# [6] = prey ATXN2, TLNPNAKEFNPRSF(averaged) over the two overlapping peptides, P = wild type
# [7] = prey ATXN2, TLNPNAKEFNPRSF(averaged) over the two overlapping peptides, T = wild type
# [8] = prey ATXN2, peptide TLNPNAKEFNPRSFSQ, L = wild type
# [9] = prey ATXN2, TLNPNAKEFNPRSF(averaged) over the two overlapping peptides
# [10] = prey ATXN2, peptide TLNPNAKEFNPRSFSQ
# [11] = prey ATXN2, peptide KSTLNPNAKEFNPRSF, T = wild type
# [12] = prey ATXN2, peptide KSTLNPNAKEFNPRSF, P = wild type
# [13] = prey ATXN2, peptide TLNPNAKEFNPRSFSQ, A = wild type
# [14] = prey ATXN2, peptide KSTLNPNAKEFNPRSF, N = wild type
# [15] = prey ATXN2, peptide KSTLNPNAKEFNPRSF, F = wild type
# [16] = prey ATXN2, TLNPNAKEFNPRSF(averaged) over the two overlapping peptides, A = wild type
# [17] = prey ATXN2, peptide TLNPNAKEFNPRSFSQ, E = wild type
# [18] = prey ATXN2, TLNPNAKEFNPRSF(averaged) over the two overlapping peptides, N = wild type
substance,measurement,setting,value
TLNPNAKEFNPRSFSQ K7P (TLNPNAPEFNPRSFSQ),"DMS-derived PSSM value, position K7",[1],0.006619
TLNPNAKEFNPRSF(averaged) F14G (TLNPNAKEFNPRSG),"DMS-derived PSSM value (averaged), position F14",[2],0.002756
KSTLNPNAKEFNPRSF L4I (KSTINPNAKEFNPRSF),"DMS-derived PSSM value, position L4","prey ATXN2, peptide KSTLNPNAKEFNPRSF, L = wild type",0
TLNPNAKEFNPRSF(averaged) F14S (TLNPNAKEFNPRSS),"DMS-derived PSSM value (averaged), position F14",[2],0.01539
TLNPNAKEFNPRSFSQ F14R (TLNPNAKEFNPRSRSQ),"DMS-derived PSSM value, position F14",[3],0.0002828
TLNPNAKEFNPRSFSQ N5S (TLNPSAKEFNPRSFSQ),"DMS-derived PSSM value, position N5",[4],0.00244
KSTLNPNAKEFNPRSF S15T (KSTLNPNAKEFNPRTF),"DMS-derived PSSM value, position S15",[5],0.007163
TLNPNAKEFNPRSF(averaged) P4D (TLNDNAKEFNPRSF),"DMS-derived PSSM value (averaged), position P4",[6],0
TLNPNAKEFNPRSFSQ K7E (TLNPNAEEFNPRSFSQ),"DMS-derived PSSM value, position K7",[1],0.001823
TLNPNAKEFNPRSFSQ N5K (TLNPKAKEFNPRSFSQ),"DMS-derived PSSM value, position N5",[4],0.01257
TLNPNAKEFNPRSFSQ F14L (TLNPNAKEFNPRSLSQ),"DMS-derived PSSM value, position F14",[3],0.08923
KSTLNPNAKEFNPRSF R14W (KSTLNPNAKEFNPWSF),"DMS-derived PSSM value, position R14",[5],0.1772
TLNPNAKEFNPRSF(averaged) T1F (FLNPNAKEFNPRSF),"DMS-derived PSSM value (averaged), position T1",[7],0.03587
TLNPNAKEFNPRSFSQ L2P (TPNPNAKEFNPRSFSQ),"DMS-derived PSSM value, position L2",[8],0.03756
TLNPNAKEFNPRSF(averaged) R12K (TLNPNAKEFNPKSF),"DMS-derived PSSM value (averaged), position R12",[9],0.01002
TLNPNAKEFNPRSF(averaged) F9L (TLNPNAKELNPRSF),"DMS-derived PSSM value (averaged), position F9",[2],0
TLNPNAKEFNPRSFSQ S13P (TLNPNAKEFNPRPFSQ),"DMS-derived PSSM value, position S13",[10],0.0852
KSTLNPNAKEFNPRSF T3M (KSMLNPNAKEFNPRSF),"DMS-derived PSSM value, position T3",[11],0.08084
KSTLNPNAKEFNPRSF P6E (KSTLNENAKEFNPRSF),"DMS-derived PSSM value, position P6",[12],0
KSTLNPNAKEFNPRSF R14D (KSTLNPNAKEFNPDSF),"DMS-derived PSSM value, position R14",[5],0
TLNPNAKEFNPRSFSQ A6M (TLNPNMKEFNPRSFSQ),"DMS-derived PSSM value, position A6",[13],0
KSTLNPNAKEFNPRSF P6S (KSTLNSNAKEFNPRSF),"DMS-derived PSSM value, position P6",[12],0.01358
KSTLNPNAKEFNPRSF N7W (KSTLNPWAKEFNPRSF),"DMS-derived PSSM value, position N7",[14],0
TLNPNAKEFNPRSFSQ A6V (TLNPNVKEFNPRSFSQ),"DMS-derived PSSM value, position A6",[13],0.2197
TLNPNAKEFNPRSFSQ S13N (TLNPNAKEFNPRNFSQ),"DMS-derived PSSM value, position S13",[10],0.07115
KSTLNPNAKEFNPRSF F11R (KSTLNPNAKERNPRSF),"DMS-derived PSSM value, position F11",[15],0
KSTLNPNAKEFNPRSF P13I (KSTLNPNAKEFNIRSF),"DMS-derived PSSM value, position P13",[12],0.01276
TLNPNAKEFNPRSF(averaged) F9G (TLNPNAKEGNPRSF),"DMS-derived PSSM value (averaged), position F9",[2],0
TLNPNAKEFNPRSF(averaged) A6N (TLNPNNKEFNPRSF),"DMS-derived PSSM value (averaged), position A6",[16],0
TLNPNAKEFNPRSFSQ R12Y (TLNPNAKEFNPYSFSQ),"DMS-derived PSSM value, position R12",[10],0.05186
TLNPNAKEFNPRSFSQ E8N (TLNPNAKNFNPRSFSQ),"DMS-derived PSSM value, position E8",[17],0.1259
TLNPNAKEFNPRSFSQ R12Q (TLNPNAKEFNPQSFSQ),"DMS-derived PSSM value, position R12",[10],0.0158
TLNPNAKEFNPRSF(averaged) N10K (TLNPNAKEFKPRSF),"DMS-derived PSSM value (averaged), position N10",[18],0.01006
KSTLNPNAKEFNPRSF P6K (KSTLNKNAKEFNPRSF),"DMS-derived PSSM value, position P6",[12],0
TLNPNAKEFNPRSFSQ N3A (TLAPNAKEFNPRSFSQ),"DMS-derived PSSM value, position N3",[4],0
TLNPNAKEFNPRSFSQ F9V (TLNPNAKEVNPRSFSQ),"DMS-derived PSSM value, position F9",[3],0.0008789
KSTLNPNAKEFNPRSF F16A (KSTLNPNAKEFNPRSA),"DMS-derived PSSM value, position F16",[15],0.08044
KSTLNPNAKEFNPRSF K9T (KSTLNPNATEFNPRSF),"DMS-derived PSSM value, position K9","prey ATXN2, peptide KSTLNPNAKEFNPRSF, K = wild type",0.02286
KSTLNPNAKEFNPRSF E10D (KSTLNPNAKDFNPRSF),"DMS-derived PSSM value, position E10","prey ATXN2, peptide KSTLNPNAKEFNPRSF, E = wild type",0
TLNPNAKEFNPRSF(averaged) T1E (ELNPNAKEFNPRSF),"DMS-derived PSSM value (averaged), position T1",[7],0.1201
KSTLNPNAKEFNPRSF N12W (KSTLNPNAKEFWPRSF),"DMS-derived PSSM value, position N12",[14],0.1585
TLNPNAKEFNPRSFSQ N3Q (TLQPNAKEFNPRSFSQ),"DMS-derived PSSM value, position N3",[4],0.055
TLNPNAKEFNPRSF(averaged) R12M (TLNPNAKEFNPMSF),"DMS-derived PSSM value (averaged), position R12",[9],0.02329
TLNPNAKEFNPRSF(averaged) N5Y (TLNPYAKEFNPRSF),"DMS-derived PSSM value (averaged), position N5",[18],0.004226
TLNPNAKEFNPRSF(averaged) P4F (TLNFNAKEFNPRSF),"DMS-derived PSSM value (averaged), position P4",[6],0.005863
TLNPNAKEFNPRSFSQ K7N (TLNPNANEFNPRSFSQ),"DMS-derived PSSM value, position K7",[1],0.08014
TLNPNAKEFNPRSF(averaged) E8H (TLNPNAKHFNPRSF),"DMS-derived PSSM value (averaged), position E8","prey ATXN2, TLNPNAKEFNPRSF(averaged) over the two overlapping peptides, E = wild type",0.2075
TLNPNAKEFNPRSFSQ T1W (WLNPNAKEFNPRSFSQ),"DMS-derived PSSM value, position T1","prey ATXN2, peptide TLNPNAKEFNPRSFSQ, T = wild type",0.001527
TLNPNAKEFNPRSFSQ N5L (TLNPLAKEFNPRSFSQ),"DMS-derived PSSM value, position N5",[4],0.06159
KSTLNPNAKEFNPRSF A8Y (KSTLNPNYKEFNPRSF),"DMS-derived PSSM value, position A8","prey ATXN2, peptide KSTLNPNAKEFNPRSF, A = wild type",0
TLNPNAKEFNPRSFSQ K7W (TLNPNAWEFNPRSFSQ),"DMS-derived PSSM value, position K7",[1],0.03322
TLNPNAKEFNPRSFSQ E8V (TLNPNAKVFNPRSFSQ),"DMS-derived PSSM value, position E8",[17],0.09834
KSTLNPNAKEFNPRSF R14Y (KSTLNPNAKEFNPYSF),"DMS-derived PSSM value, position R14",[5],0.04467
TLNPNAKEFNPRSF(averaged) P4S (TLNSNAKEFNPRSF),"DMS-derived PSSM value (averaged), position P4",[6],0.01466
TLNPNAKEFNPRSFSQ P4I (TLNINAKEFNPRSFSQ),"DMS-derived PSSM value, position P4","prey ATXN2, peptide TLNPNAKEFNPRSFSQ, P = wild type",0.2422
KSTLNPNAKEFNPRSF N12T (KSTLNPNAKEFTPRSF),"DMS-derived PSSM value, position N12",[14],0.02601
KSTLNPNAKEFNPRSF T3E (KSELNPNAKEFNPRSF),"DMS-derived PSSM value, position T3",[11],0.2365
KSTLNPNAKEFNPRSF S15H (KSTLNPNAKEFNPRHF),"DMS-derived PSSM value, position S15",[5],0.1165
TLNPNAKEFNPRSF(averaged) R12D (TLNPNAKEFNPDSF),"DMS-derived PSSM value (averaged), position R12",[9],0.02577
KSTLNPNAKEFNPRSF F16D (KSTLNPNAKEFNPRSD),"DMS-derived PSSM value, position F16",[15],0.02019
TLNPNAKEFNPRSF(averaged) A6M (TLNPNMKEFNPRSF),"DMS-derived PSSM value (averaged), position A6",[16],0
TLNPNAKEFNPRSFSQ L2V (TVNPNAKEFNPRSFSQ),"DMS-derived PSSM value, position L2",[8],0
TLNPNAKEFNPRSFSQ N5T (TLNPTAKEFNPRSFSQ),"DMS-derived PSSM value, position N5",[4],0.0193
TLNPNAKEFNPRSF(averaged) N5H (TLNPHAKEFNPRSF),"DMS-derived PSSM value (averaged), position N5",[18],0.03609
KSTLNPNAKEFNPRSF R14H (KSTLNPNAKEFNPHSF),"DMS-derived PSSM value, position R14",[5],0.02913
TLNPNAKEFNPRSF(averaged) R12W (TLNPNAKEFNPWSF),"DMS-derived PSSM value (averaged), position R12",[9],0.09752
TLNPNAKEFNPRSF(averaged) F14Y (TLNPNAKEFNPRSY),"DMS-derived PSSM value (averaged), position F14",[2],0.08672
